Results as given in patent US20210154359A1, “FIBRILLAR-PROTEIN BASED COMPOSITIONS AND USES THEREOF” (Hi-Aspect Limited, priority 2017, published 2021).
≈ marks a conversion by molar mass, not a printed value. Read-outs that look alike come from different tables or passages of the source. One block for each compound: values may come before it.

Assays:
[1] = Loading capacity of protein composition C with hydrophilic and hydrophobic agents; type: physicochemical; details: in protein composition C, room temperature
3T3 = assay: In Vitro 3T3 NRU Phototoxicity Test (OECD 432); type: cell-based; details: for IC50: Mus musculus, NIH3T3, light or radiation study
[2] = agent in water, in words; cited from earlier work
[3] = loading trial to date, not maximum loading
[4] = read-out: Cell Viability IC50 Minus UVA
[5] = read-out: Cell Viability IC50 Plus UVA

Loading ([1]; maximum loading): 350 mg/g
Compound: O=C1O[C@H]([C@@H](O)CO)C(O)=C1O [Ascorbic acid]

Compound: O=C(O)c1ccccc1 [Benzoic acid]
Loading [1, 3]: 10 mg/g

Compound: Cn1c(=O)c2c(ncn2C)n(C)c1=O [Caffeine]
Loading ([1]; maximum loading): 350 mg/g

Compound: CN(C)CCCN1c2ccccc2Sc2ccc(Cl)cc21 [Chlorpromazine]
Comment (phototoxicity) (3T3): Phototoxic | Mean MPE (3T3): 0.510 | Mean PIF (3T3): 70 | IC50 (3T3; [4]): 7 µg/mL (≈ 22 µM) | IC50 (3T3; [5]): 0.1 µg/mL

Compound: N[C@@H](Cc1c[nH]cn1)C(=O)O [Histidine]
Mean MPE (3T3): −0.016 | Mean PIF (3T3): 1.0 | IC50 (3T3; [4]): > 1000 µg/mL | IC50 (3T3; [5]): > 1000 µg/mL

Loading [1, 3]: 10 mg/g
Compound: CN(C)c1ccc2nc3ccc(=[N+](C)C)cc-3sc2c1 [Methylene blue]

Compound: C=C[C@H]1C[N@@]2CC[C@H]1C[C@H]2[C@H](O)c1ccnc2ccc(OC)cc12 [Quinine sulphate]
Loading [1, 3]: 10 mg/g

Loading [1, 3]: 1 mg/g
Compound: CC1=C(/C=C/C(C)=C/C=C/C(C)=C/C=O)C(C)(C)CCC1 [Retinal]
Solubility (water) [2]: Nearly insoluble

Loading [1, 3]: 25 mg/g
Compound: CCCCCCCCCCCCCCCC(=O)OC/C=C(C)/C=C/C=C(C)/C=C/C1=C(C)CCCC1(C)C [Retinyl palmitate]
Solubility (water) [2]: Insoluble

Compound: N[C@@H](Cc1c[nH]c2ccccc12)C(=O)O [Tryptophan]
Loading ([1]; maximum loading): 350 mg/g
